Tests used:
[1] = target: Ribosomal protein S6 kinase alpha-5 (Homo sapiens) (UniProt O75582); conditions: Compound concentration 1000.0 nM
[2] = target: Epithelial discoidin domain-containing receptor 1 (Homo sapiens) (UniProt Q08345); conditions: Compound concentration 1000.0 nM
[3] = target: Serine/threonine-protein kinase WNK4 (Homo sapiens) (UniProt Q96J92); conditions: Compound concentration 1000.0 nM
[4] = target: Insulin receptor-related protein (Homo sapiens) (UniProt P14616); conditions: Compound concentration 1000.0 nM
[5] = system: Phosphatidylinositol 4,5-bisphosphate 3-kinase catalytic subunit alpha isoform (Homo sapiens), P42336 [E542K]; conditions: Compound concentration 1000.0 nM
[6] = target: Serine/threonine-protein kinase Sgk1 (Homo sapiens) (UniProt O00141); conditions: Compound concentration 1000.0 nM
[7] = target: Transient receptor potential cation channel subfamily M member 6 (Homo sapiens) (UniProt Q9BX84); conditions: Compound concentration 1000.0 nM
[8] = system: Tyrosine-protein kinase ABL1 (Homo sapiens), P00519 [H396P]; conditions: Compound concentration 1000.0 nM
[9] = target: Ribosomal protein S6 kinase alpha-5 (Homo sapiens) (UniProt O75582); conditions: Compound concentration 1000.0 nM; remark: listed apart in the source
[10] = target: MAP kinase-interacting serine/threonine-protein kinase 1 (Homo sapiens) (UniProt Q9BUB5); conditions: Compound concentration 1000.0 nM
[11] = system: Tyrosine-protein kinase ABL1 (Homo sapiens), P00519 [Q252H]; conditions: Compound concentration 1000.0 nM
[12] = target: D(2) dopamine receptor (Homo sapiens) (UniProt P14416); conditions: Compound concentration 10.0 uM
[13] = target: Serine/threonine-protein kinase PLK3 (Homo sapiens) (UniProt Q9H4B4); conditions: Compound concentration 1000.0 nM
[14] = target: Cyclin-dependent kinase 5 (Homo sapiens) (UniProt Q00535); conditions: Compound concentration 1000.0 nM
[15] = target: Serine/threonine-protein kinase LATS1 (Homo sapiens) (UniProt O95835); conditions: Compound concentration 1000.0 nM
[16] = target: D(4) dopamine receptor (Homo sapiens) (UniProt P21917); conditions: Compound concentration 10.0 uM
[17] = target: Cyclin-dependent kinase 2 homolog (Plasmodium falciparum (isolate 3D7)) (UniProt P61075); conditions: Compound concentration 1000.0 nM
[18] = target: Cytoplasmic tyrosine-protein kinase BMX (Homo sapiens) (UniProt P51813); conditions: Compound concentration 1000.0 nM
[19] = target: Serine/threonine-protein kinase 32C (Homo sapiens) (UniProt Q86UX6); conditions: Compound concentration 1000.0 nM
[20] = target: Receptor-type tyrosine-protein kinase FLT3 (Homo sapiens) (UniProt P36888); conditions: Compound concentration 1000.0 nM
[21] = target: Cyclin-dependent kinase 16 (Homo sapiens) (UniProt Q00536); conditions: Compound concentration 1000.0 nM
[22] = target: Mitogen-activated protein kinase kinase kinase 12 (Homo sapiens) (UniProt Q12852); conditions: Compound concentration 1000.0 nM
[23] = target: Discoidin domain-containing receptor 2 (Homo sapiens) (UniProt Q16832); conditions: Compound concentration 1000.0 nM
[24] = target: Mitogen-activated protein kinase kinase kinase 11 (Homo sapiens) (UniProt Q16584); conditions: Compound concentration 1000.0 nM
[25] = target: Dual specificity mitogen-activated protein kinase kinase 1 (Homo sapiens) (UniProt Q02750); conditions: Compound concentration 1000.0 nM
[26] = system: Serine/threonine-protein kinase B-raf (Homo sapiens), P15056 [V600E]; conditions: Compound concentration 1000.0 nM
[27] = target: Phosphatidylinositol 3-kinase catalytic subunit type 3 (Homo sapiens) (UniProt Q8NEB9); conditions: Compound concentration 1000.0 nM
[28] = target: Dual specificity protein kinase TTK (Homo sapiens) (UniProt P33981); conditions: Compound concentration 1000.0 nM
[29] = target: Serine/threonine-protein kinase PknB (Mycobacterium tuberculosis) (UniProt P9WI81); conditions: Compound concentration 1000.0 nM
[30] = target: Cyclin-dependent kinase 11A (Homo sapiens) (UniProt Q9UQ88); conditions: Compound concentration 1000.0 nM
[31] = target: Mitogen-activated protein kinase kinase kinase 5 (Homo sapiens) (UniProt Q99683); conditions: Compound concentration 1000.0 nM
[32] = target: Casein kinase I isoform gamma-1 (Homo sapiens) (UniProt Q9HCP0); conditions: Compound concentration 1000.0 nM
[33] = system: Tyrosine-protein kinase ABL1 (Homo sapiens), P00519 [T315I]; conditions: Compound concentration 1000.0 nM
[34] = target: Serine/threonine-protein kinase STK11 (Homo sapiens) (UniProt Q15831); conditions: Compound concentration 1000.0 nM
[35] = target: Serine/threonine-protein kinase TAO1 (Homo sapiens) (UniProt Q7L7X3); conditions: Compound concentration 1000.0 nM
[36] = target: Tyrosine-protein kinase FRK (Homo sapiens) (UniProt P42685); conditions: Compound concentration 1000.0 nM
[37] = target: Serine/threonine-protein kinase LATS2 (Homo sapiens) (UniProt Q9NRM7); conditions: Compound concentration 1000.0 nM
[38] = target: 5-hydroxytryptamine receptor 2B (Homo sapiens) (UniProt P41595); conditions: Compound concentration 10.0 uM
[39] = target: Cyclin-dependent kinase 19 (Homo sapiens) (UniProt Q9BWU1); conditions: Compound concentration 1000.0 nM
[40] = target: Phosphorylase b kinase gamma catalytic chain, skeletal muscle/heart isoform (Homo sapiens) (UniProt Q16816); conditions: Compound concentration 1000.0 nM
[41] = target: Receptor tyrosine-protein kinase erbB-4 (Homo sapiens) (UniProt Q15303); conditions: Compound concentration 1000.0 nM
[42] = target: Serine/threonine-protein kinase 36 (Homo sapiens) (UniProt Q9NRP7); conditions: Compound concentration 1000.0 nM
[43] = target: Phosphorylase b kinase regulatory subunit alpha, liver isoform (Homo sapiens) (UniProt P46019); conditions: Compound concentration 1000.0 nM
[44] = target: Myosin light chain kinase (Homo sapiens) (UniProt Q32MK0); conditions: Compound concentration 1000.0 nM
[45] = target: Alpha-2B adrenergic receptor (Homo sapiens) (UniProt P18089); conditions: Compound concentration 10.0 uM

Sequence of Ribosomal protein S6 kinase alpha-5 (Homo sapiens) (O75582 whole entry, looked up, the tested form may be a part): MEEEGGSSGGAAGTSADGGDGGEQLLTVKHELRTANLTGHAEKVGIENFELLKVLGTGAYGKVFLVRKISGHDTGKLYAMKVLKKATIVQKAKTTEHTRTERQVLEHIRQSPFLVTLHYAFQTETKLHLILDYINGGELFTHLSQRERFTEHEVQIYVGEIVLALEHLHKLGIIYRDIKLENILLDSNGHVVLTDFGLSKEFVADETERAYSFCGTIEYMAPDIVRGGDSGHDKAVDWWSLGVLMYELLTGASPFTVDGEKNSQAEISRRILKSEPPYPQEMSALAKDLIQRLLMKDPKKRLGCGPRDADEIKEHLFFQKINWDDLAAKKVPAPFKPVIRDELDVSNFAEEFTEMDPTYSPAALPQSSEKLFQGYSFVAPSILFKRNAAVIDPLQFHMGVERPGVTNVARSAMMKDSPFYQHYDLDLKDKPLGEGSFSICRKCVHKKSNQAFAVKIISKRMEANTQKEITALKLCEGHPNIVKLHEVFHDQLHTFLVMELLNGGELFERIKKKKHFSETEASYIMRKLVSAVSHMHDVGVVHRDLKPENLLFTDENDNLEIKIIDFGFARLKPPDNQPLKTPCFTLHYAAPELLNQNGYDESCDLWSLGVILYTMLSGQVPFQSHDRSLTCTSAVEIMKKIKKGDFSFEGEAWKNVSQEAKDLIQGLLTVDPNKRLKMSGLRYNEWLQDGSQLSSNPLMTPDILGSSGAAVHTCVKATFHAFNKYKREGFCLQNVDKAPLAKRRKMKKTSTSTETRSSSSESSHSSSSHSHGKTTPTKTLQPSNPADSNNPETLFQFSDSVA
Sequence of Serine/threonine-protein kinase PknB (Mycobacterium tuberculosis) (P9WI81 whole entry): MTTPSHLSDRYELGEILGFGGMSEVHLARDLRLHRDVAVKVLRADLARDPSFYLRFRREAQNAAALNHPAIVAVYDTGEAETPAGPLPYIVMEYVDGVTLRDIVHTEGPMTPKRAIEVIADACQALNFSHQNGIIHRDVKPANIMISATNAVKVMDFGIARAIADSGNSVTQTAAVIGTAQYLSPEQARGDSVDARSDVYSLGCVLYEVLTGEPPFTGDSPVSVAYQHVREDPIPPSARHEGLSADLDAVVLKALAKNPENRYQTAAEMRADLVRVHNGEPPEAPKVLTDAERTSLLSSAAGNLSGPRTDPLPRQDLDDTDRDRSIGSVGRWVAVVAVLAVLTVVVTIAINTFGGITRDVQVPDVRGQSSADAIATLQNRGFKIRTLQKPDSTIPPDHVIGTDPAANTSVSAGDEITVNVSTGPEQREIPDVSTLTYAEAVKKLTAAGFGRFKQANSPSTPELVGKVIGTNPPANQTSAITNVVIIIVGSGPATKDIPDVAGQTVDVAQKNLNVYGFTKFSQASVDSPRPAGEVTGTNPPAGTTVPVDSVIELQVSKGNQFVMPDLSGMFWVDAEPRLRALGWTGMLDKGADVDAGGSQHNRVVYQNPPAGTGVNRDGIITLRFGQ
Sequence of Serine/threonine-protein kinase B-raf (Homo sapiens), P15056 [V600E] (P15056 whole entry V600E): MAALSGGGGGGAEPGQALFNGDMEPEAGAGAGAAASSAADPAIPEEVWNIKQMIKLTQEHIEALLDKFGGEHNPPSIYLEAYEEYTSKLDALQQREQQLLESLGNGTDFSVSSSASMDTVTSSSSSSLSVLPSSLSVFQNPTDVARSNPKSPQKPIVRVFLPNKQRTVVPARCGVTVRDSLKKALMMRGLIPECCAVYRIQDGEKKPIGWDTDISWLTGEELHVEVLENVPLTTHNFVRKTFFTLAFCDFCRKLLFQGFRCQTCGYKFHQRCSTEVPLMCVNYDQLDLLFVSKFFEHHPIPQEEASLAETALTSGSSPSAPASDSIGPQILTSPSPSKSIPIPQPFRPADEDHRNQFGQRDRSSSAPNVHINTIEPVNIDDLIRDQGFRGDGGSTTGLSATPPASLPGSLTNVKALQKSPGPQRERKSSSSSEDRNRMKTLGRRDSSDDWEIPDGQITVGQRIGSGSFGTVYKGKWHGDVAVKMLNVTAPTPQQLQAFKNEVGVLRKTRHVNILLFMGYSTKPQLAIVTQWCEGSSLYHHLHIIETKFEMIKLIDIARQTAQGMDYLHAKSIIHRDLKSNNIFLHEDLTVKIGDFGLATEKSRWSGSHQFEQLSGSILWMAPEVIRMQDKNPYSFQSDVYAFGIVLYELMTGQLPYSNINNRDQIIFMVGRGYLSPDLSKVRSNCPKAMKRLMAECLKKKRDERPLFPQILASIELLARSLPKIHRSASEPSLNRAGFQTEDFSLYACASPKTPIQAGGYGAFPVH
Sequence of Serine/threonine-protein kinase Sgk1 (Homo sapiens) (O00141 whole entry): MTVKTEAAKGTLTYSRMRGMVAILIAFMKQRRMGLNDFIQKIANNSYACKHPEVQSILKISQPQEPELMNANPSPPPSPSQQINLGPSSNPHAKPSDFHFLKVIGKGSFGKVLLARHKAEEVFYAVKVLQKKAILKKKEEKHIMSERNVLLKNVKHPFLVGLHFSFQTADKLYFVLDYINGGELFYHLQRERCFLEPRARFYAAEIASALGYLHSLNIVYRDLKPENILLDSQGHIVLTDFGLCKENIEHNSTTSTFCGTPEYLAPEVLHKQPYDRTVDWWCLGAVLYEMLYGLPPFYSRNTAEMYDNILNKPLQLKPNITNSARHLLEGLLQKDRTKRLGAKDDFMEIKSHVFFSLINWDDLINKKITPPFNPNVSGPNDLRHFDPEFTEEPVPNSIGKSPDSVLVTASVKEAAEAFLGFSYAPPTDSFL
Sequence of Serine/threonine-protein kinase LATS2 (Homo sapiens) (Q9NRM7 whole entry): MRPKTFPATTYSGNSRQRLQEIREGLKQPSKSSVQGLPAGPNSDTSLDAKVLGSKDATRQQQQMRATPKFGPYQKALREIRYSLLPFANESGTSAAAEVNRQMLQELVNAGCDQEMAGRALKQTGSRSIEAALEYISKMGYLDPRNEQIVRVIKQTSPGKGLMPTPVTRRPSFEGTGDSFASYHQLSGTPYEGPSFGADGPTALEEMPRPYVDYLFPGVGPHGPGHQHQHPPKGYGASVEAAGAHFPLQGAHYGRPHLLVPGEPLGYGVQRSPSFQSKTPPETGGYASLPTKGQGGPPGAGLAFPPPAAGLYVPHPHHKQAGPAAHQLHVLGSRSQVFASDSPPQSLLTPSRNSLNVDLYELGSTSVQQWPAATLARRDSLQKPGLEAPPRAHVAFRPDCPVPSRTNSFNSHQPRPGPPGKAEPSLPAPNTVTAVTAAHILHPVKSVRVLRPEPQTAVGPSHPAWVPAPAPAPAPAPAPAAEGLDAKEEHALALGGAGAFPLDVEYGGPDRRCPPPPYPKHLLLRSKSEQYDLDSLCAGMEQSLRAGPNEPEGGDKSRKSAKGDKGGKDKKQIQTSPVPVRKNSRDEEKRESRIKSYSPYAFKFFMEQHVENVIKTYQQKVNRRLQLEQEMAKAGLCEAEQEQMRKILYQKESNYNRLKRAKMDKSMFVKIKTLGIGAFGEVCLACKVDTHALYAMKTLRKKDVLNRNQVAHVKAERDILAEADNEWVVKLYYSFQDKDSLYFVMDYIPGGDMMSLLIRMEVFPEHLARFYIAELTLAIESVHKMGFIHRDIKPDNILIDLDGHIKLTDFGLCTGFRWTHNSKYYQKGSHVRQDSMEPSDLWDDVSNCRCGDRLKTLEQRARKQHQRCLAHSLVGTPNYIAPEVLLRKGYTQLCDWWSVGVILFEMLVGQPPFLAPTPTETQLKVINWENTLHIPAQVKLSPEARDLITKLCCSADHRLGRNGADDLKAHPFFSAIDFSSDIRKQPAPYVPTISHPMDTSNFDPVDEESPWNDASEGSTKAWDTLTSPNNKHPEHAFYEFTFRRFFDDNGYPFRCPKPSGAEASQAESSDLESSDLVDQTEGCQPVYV
Sequence of Mitogen-activated protein kinase kinase kinase 12 (Homo sapiens) (Q12852 whole entry, the tested form may be a part): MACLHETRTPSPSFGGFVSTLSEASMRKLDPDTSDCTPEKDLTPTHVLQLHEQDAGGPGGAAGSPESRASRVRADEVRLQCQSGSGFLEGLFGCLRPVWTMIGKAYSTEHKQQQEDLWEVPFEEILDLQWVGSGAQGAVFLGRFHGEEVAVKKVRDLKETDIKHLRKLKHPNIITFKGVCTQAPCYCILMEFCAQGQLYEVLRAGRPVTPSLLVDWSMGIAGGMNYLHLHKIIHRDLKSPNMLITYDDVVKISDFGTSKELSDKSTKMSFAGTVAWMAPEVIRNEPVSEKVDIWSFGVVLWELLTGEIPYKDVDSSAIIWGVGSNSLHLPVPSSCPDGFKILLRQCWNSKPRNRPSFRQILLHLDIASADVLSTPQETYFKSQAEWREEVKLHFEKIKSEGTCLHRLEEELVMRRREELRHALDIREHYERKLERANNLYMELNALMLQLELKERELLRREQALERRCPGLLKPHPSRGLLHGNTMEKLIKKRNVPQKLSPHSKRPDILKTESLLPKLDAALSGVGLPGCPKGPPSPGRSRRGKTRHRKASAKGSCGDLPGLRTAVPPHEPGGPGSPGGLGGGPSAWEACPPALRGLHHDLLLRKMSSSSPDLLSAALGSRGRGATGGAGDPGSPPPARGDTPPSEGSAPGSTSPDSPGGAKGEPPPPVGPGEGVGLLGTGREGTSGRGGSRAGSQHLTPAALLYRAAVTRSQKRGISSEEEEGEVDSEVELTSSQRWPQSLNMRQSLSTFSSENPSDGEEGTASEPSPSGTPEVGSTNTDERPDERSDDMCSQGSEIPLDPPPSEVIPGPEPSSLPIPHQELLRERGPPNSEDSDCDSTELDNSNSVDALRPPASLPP
Sequence of Casein kinase I isoform gamma-1 (Homo sapiens) (Q9HCP0 whole entry, looked up, canonical isoform): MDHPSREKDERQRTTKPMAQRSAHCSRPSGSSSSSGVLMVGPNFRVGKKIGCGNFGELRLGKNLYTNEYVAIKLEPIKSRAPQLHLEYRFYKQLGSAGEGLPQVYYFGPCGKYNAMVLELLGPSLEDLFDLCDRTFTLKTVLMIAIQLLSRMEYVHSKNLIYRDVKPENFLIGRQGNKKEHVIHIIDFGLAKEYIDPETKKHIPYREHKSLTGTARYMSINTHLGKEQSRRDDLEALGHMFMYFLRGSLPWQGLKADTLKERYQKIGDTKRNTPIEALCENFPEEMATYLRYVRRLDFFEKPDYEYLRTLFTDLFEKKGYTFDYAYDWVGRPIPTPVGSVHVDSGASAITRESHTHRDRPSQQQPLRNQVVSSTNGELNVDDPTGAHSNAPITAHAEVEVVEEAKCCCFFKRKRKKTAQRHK

Cc1c(NC(=O)c2cc(C(N)=O)nc3cc(F)ccc23)c(C(F)(F)F)nn1Cc1ccc(C(C)(C)C)cc1 [BAY-588]
residual activity [1]: 100% | residual activity [2]: 95% | residual activity [3]: 100% | residual activity [4]: 96% | residual activity [5]: 43% | residual activity [6]: 100% | residual activity [7]: 100% | residual activity [8]: 100% | residual activity [9]: 89% | residual activity [10]: 100% | residual activity [11]: 100% | inhibition [12]: 18% | residual activity [13]: 94% | residual activity [14]: 76% | residual activity [15]: 100% | inhibition [16]: 4.93% | residual activity [17]: 100% | residual activity [18]: 88% | residual activity [19]: 100% | residual activity [20]: 100% | residual activity [21]: 100% | residual activity [22]: 100% | residual activity [23]: 93% | residual activity [24]: 100% | residual activity [25]: 91% | residual activity [26]: 98% | residual activity [27]: 100% | residual activity [28]: 79% | residual activity [29]: 95% | residual activity [30]: 94% | residual activity [31]: 100% | residual activity [32]: 100% | residual activity [33]: 100% | residual activity [34]: 100% | residual activity [35]: 100% | residual activity [36]: 90% | residual activity [37]: 84% | inhibition [38]: -8.78% | residual activity [39]: 100% | residual activity [40]: 100% | residual activity [41]: 98% | residual activity [42]: 97% | residual activity [43]: 83% | residual activity [44]: 100% | inhibition [45]: 15.6%

Cc1c(NC(=O)c2cc(C(N)=O)nc3cc(F)ccc23)c(C(F)(F)F)nn1Cc1ccc(C#N)cc1 [BAY-876]
residual activity [1]: 97% | residual activity [2]: 1.5% | residual activity [3]: -0% | residual activity [4]: 92% | residual activity [5]: 84% | residual activity [6]: 90% | residual activity [7]: 87% | residual activity [8]: 100% | residual activity [9]: 100% | residual activity [10]: 68% | residual activity [11]: 81% | inhibition [12]: 8.73% | residual activity [13]: 84% | residual activity [14]: 100% | residual activity [15]: 94% | inhibition [16]: 15.1% | residual activity [17]: 91% | residual activity [18]: 85% | residual activity [19]: 69% | residual activity [20]: 83% | residual activity [21]: 100% | residual activity [22]: 89% | residual activity [23]: 66% | residual activity [24]: 100% | residual activity [25]: 90% | residual activity [26]: 90% | residual activity [27]: 99% | residual activity [28]: 95% | residual activity [29]: 78% | residual activity [30]: 100% | residual activity [31]: 91% | residual activity [32]: 100% | residual activity [33]: 100% | residual activity [34]: 100% | residual activity [35]: 93% | residual activity [36]: 100% | residual activity [37]: 72% | inhibition [38]: 11.1% | residual activity [39]: 82% | residual activity [40]: 100% | residual activity [41]: 95% | residual activity [42]: 100% | residual activity [43]: 94% | residual activity [44]: 79% | inhibition [45]: 7.66%

Source: ChEMBL document CHEMBL4507267 (2021)
